Experimental findings from ChEMBL document CHEMBL3886705, “Cyanomethylpyrazole carboxamides as janus kinase inhibitors” (2016) are described below.

“And” between values parts separate entries of the source, which are not always exact repeats. Equal values may be shown once. A value given as a limit tells only on which side of the number the result lay.

The target in assay [1] is Tyrosine-protein kinase JAK1 (Homo sapiens, UniProt P23458). Description: Subsequent reagent additions employed an Agilent Bravo.
Assay [2] concerns the target Tyrosine-protein kinase JAK2 (Homo sapiens, UniProt O60674).

Tyrosine-protein kinase JAK2, sequence (O60674 whole entry): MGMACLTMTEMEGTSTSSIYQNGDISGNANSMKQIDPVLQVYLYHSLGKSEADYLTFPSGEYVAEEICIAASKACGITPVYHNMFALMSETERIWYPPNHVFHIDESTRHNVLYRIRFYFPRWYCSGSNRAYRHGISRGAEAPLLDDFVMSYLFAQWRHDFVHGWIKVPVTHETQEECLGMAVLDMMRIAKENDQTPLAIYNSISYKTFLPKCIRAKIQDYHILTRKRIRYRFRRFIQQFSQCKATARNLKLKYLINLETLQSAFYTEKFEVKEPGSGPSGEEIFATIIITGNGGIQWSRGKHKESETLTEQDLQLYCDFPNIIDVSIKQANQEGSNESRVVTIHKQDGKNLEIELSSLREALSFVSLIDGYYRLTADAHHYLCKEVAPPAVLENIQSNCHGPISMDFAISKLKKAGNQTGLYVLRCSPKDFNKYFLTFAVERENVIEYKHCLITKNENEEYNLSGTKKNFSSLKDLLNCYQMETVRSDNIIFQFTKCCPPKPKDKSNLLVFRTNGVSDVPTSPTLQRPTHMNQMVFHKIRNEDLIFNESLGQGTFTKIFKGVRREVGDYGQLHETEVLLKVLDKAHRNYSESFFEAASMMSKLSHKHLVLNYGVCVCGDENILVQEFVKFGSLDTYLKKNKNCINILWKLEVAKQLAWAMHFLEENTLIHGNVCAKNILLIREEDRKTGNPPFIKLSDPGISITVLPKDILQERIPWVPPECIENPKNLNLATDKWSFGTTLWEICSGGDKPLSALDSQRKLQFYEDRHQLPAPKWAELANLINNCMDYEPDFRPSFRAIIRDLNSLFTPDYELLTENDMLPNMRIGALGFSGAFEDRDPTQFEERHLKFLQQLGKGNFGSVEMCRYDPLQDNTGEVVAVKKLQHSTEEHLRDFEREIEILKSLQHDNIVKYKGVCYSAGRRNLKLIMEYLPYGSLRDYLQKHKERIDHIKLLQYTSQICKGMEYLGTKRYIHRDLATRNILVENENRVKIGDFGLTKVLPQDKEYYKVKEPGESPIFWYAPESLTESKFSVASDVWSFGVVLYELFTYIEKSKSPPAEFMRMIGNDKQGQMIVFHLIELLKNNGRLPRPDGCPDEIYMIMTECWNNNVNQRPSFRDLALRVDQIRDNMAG
Tyrosine-protein kinase JAK1, sequence (P23458 whole entry): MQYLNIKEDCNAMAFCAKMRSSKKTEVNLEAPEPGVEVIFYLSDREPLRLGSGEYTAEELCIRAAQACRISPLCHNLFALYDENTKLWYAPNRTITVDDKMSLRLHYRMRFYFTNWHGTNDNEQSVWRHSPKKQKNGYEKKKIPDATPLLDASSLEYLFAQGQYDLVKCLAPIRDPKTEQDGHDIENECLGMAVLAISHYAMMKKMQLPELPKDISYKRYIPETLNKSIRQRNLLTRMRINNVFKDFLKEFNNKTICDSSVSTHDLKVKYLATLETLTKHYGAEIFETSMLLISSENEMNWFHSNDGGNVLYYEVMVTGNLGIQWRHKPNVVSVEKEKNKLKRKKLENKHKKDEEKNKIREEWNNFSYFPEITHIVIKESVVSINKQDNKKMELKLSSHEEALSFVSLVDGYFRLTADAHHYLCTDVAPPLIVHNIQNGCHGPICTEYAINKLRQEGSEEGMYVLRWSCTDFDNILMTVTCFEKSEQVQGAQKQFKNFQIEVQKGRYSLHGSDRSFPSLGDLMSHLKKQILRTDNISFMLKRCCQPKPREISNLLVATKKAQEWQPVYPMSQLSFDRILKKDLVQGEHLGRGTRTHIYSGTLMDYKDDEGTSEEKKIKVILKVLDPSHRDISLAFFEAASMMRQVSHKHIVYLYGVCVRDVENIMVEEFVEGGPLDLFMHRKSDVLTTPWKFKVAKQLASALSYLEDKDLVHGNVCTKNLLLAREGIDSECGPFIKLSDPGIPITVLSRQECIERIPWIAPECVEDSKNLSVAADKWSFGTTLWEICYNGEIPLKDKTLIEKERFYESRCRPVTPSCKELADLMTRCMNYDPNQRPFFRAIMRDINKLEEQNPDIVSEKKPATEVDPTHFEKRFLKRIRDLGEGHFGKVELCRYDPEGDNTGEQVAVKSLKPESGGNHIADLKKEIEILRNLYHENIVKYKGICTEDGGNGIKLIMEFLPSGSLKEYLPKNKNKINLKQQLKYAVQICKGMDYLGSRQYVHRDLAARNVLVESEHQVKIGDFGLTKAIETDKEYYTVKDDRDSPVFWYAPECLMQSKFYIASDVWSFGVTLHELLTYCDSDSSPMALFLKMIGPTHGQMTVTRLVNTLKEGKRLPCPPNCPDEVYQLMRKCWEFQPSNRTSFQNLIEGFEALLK

What is called IC50 is the concentration at which inhibition is half-maximal. Low readings indicate greater potency, high ones weaker potency. In the case of `CC(C)(C)OC(=O)N1CCC(CC#N)(n2cc(C(N)=O)c(Nc3cc(Cl)nc(Cl)c3)n2)CC1`, the values for the IC50 in assay [1] and in assay [2] were 1 nM and 33 nM, respectively.
Turning to `N#CCC1(n2cc(C(N)=O)c(Nc3ccnc(F)c3)n2)CCC(N)CC1` (stereo not given), the IC50 in assay [2] is > 1500 nM and 161 nM.
Consider `CN(C)C(=O)c1ccc(Nc2nn(C3(CC#N)CCN(C(=O)OC(C)(C)C)CC3)cc2C(N)=O)cc1`, for which the IC50 is 0.7 nM in assay [1] and 2 nM in assay [2].
